Measured values from patent US9321766B1, “Kinase inhibitors” (Allergan, Inc., priority 2014, dated 2016).

Columns and labels:
VEGFR2 (KDR) kinase = VEGFR2 (KDR) kinase (Homo sapiens (Human), UniProt P35968); assay: VEGFR2 Kinase Assay (biochemical KDR kinase assay, poly-Glu-Tyr ELISA); conditions: purified cytoplasmic domain KDR protein, 2.7 μM ATP
Experimental: VEGFR2 kinase potency of select analogs was determined by the following assay:
Biochemical KDR kinase assays were performed in 96 well microtiter plates that were coated overnight with 75 μg/well of poly-Glu-Tyr (4:1) in 10 mM Phosphate Buffered Saline (PBS), pH 7.4. The coated plates were washed with 2 mls per well PBS+0.05% Tween-20 (PBS-T), blocked by incubation with PBS containing 1% BSA, then washed with 2 mls per well PBS-T prior to starting the reaction. Reactions were carried out in 100 μL reaction volumes containing 2.7 μM ATP in kinase buffer (50 mM Hepes buffer pH 7.4, 20 mM MgCl2, 0.1 mM MnCl2 and 0.2 mM Na3VO4). Test compounds were reconstituted in 100% DMSO and added to the reaction to give a final DMSO concentration of 5%. Reactions were initiated by the addition 20 ul per well of kinase buffer containing 200-300 ng purified cytoplasmic domain KDR protein (BPS Bioscience, San Diego, Calif.). Following a 15 minute incubation at 30° C., the reactions were washed 2 mls per well PBS-T. 100 μl of a monoclonal anti-phosphotyrosine antibody-peroxidase conjugate diluted 1:10,000 in PBS-T was added to the wells for 30 minutes. Following a 2 mis per well wash with PBS-Tween-20, 100μl of O-Phenylenediamine Dihydrochloride in phosphate-citrate buffer, containing urea hydrogen peroxide, was added to the wells for 7-10 minutes as a colorimetric substrate for the peroxidase. The reaction was terminated by the addition of 100 μl of 2.5N H2SO4 to each well and read using a microplate ELISA reader set at 492 nm. IC50 values for compound inhibition were calculated directly from graphs of optical density (arbitrary units) versus compound concentration following subtraction of blank values.

PDGFRβ kinase = PDGFRβ kinase (Homo sapiens (Human), UniProt P09619); assay: PDGFRβ Kinase Assay (biochemical, poly-Glu-Tyr ELISA); conditions: purified cytoplasmic domain PDGFR-b protein, 36 μM ATP
Sequence of PDGFRβ kinase (P09619 554-1106): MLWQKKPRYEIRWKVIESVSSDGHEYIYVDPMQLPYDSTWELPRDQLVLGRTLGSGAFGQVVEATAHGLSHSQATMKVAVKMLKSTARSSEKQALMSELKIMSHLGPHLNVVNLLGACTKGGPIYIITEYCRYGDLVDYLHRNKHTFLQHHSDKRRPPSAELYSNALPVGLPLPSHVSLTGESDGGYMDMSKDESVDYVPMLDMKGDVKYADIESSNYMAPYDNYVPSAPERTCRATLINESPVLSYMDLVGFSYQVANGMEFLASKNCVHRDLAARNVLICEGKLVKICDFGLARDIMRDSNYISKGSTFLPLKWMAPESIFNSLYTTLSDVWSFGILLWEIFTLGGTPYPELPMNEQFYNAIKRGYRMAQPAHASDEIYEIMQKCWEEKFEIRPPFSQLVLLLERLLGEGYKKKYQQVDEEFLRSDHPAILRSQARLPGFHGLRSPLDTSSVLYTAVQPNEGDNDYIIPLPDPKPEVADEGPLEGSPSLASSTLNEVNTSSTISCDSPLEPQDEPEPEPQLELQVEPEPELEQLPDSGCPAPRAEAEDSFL
Experimental: Biochemical PDGFR3 kinase assays were performed in 96 well microtiter plates that were coated overnight with 75 μg of poly-Glu-Tyr (4:1) in 10 mM Phosphate Buffered Saline (PBS), pH 7.4. The coated plates were washed with 2 mls per well PBS+0.05% Tween-20 (PBS-T), blocked by incubation with PBS containing 1% BSA, then washed with 2 mls per well PBS-T prior to starting the reaction. Reactions were carried out in 100 μL reaction volumes containing 36 μM ATP in kinase buffer (50 mM Hepes buffer pH 7.4, 20 mM MgCl2, 0.1 mM MnCl2 and 0.2 mM Na3VO4). Test compounds were reconstituted in 100% DMSO and added to the reaction to give a final DMSO concentration of 5%. Reactions were initiated by the addition 20 ul per well of kinase buffer containing 200-300 ng purified cytoplasmic domain PDGFR-b protein (Millipore). Following a 60 minute incubation at 30° C., the reactions were washed 2 mls per well PBS-T. 100 μl of a monoclonal anti-phosphotyrosine antibody-peroxidase conjugate diluted 1:10,000 in PBS-T was added to the wells for 30 minutes. Following a 2 mls per well wash with PBS-Tween-20, 100 μl of O-Phenylenediamine Dihydrochloride in phosphate-citrate buffer, containing urea hydrogen peroxide, was added to the wells for 7-10 minutes as a colorimetric substrate for the peroxidase. The reaction was terminated by the addition of 100 μl of 2.5N H2SO4 to each well and read using a microplate ELISA reader set at 492 nm. IC50 values for compound inhibition were calculated directly from graphs of optical density (arbitrary units) versus compound concentration following subtraction of blank values.

Sequence of VEGFR2 (KDR) kinase (P35968 786-1356, species assumed): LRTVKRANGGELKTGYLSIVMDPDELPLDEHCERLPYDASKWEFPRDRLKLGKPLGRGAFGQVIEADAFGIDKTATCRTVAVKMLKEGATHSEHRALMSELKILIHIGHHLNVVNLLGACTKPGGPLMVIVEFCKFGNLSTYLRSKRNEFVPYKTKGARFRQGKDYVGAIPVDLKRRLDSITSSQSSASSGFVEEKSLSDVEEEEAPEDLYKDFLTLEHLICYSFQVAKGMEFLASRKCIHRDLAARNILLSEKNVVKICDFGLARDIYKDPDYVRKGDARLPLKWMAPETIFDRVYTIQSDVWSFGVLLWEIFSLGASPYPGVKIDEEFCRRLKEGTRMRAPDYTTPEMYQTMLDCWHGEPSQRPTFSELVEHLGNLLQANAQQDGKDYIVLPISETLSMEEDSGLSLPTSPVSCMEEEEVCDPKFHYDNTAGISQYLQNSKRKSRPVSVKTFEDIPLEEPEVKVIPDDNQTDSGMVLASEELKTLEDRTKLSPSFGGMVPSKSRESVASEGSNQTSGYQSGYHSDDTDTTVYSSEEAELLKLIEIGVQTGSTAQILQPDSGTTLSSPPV

SMILES | IC50 (VEGFR2 (KDR) kinase) | IC50 (PDGFRβ kinase)
Cc1cc[nH]c(=O)c1N1CCc2nc(N)ncc2C1 [Example 3, 3-(2-amino-7,8-dihydropyrido[4,3-d]pyrimidin-6(5H)-yl)-4-methylpyridin-2(1H)-one] | > 10000 nM | 3890 nM
Cc1ccoc1C(=O)Nc1ccc(-n2ccc(C)c(N3CCc4nc(N)ncc4C3)c2=O)cc1 [Example 17, N-{4-[3-(2-amino-7,8-dihydropyrido[4,3-d]pyrimidin-6(5H)-yl)-4-methyl-2-oxopyridin-1(2H)-yl]phenyl}-3-methyl-2-furamide] | 29 nM | 33 nM
Cc1ccn(-c2cccc(N(C)C)c2)c(=O)c1N1CCc2nc(N)ncc2C1 [Example 14, 3-(2-amino-7,8-dihydropyrido[4,3-d]pyrimidin-6(5H)-yl)-1-[3-(dimethylamino)phenyl]-4-methylpyridin-2(1H)-one] | 327 nM | > 1000 nM

More lines, now with the values ahead:

IC50 (VEGFR2 (KDR) kinase) | IC50 (PDGFRβ kinase) | SMILES
286 nM | 655 nM | CC(C)(C)c1ccc(-n2cccc(N3CCc4nc(N)ncc4C3)c2=O)cc1 [Example 2, 3-(2-amino-7,8-dihydropyrido[4,3-d]pyrimidin-6(5H)-yl)-1-(4-(tert-butyl)phenyl)pyridin-2(1H)-one]
86 nM | 381 nM | Cc1ccn(-c2ccc(C(C)(C)C)cc2)c(=O)c1N1CCc2nc(N)ncc2C1 [Example 4, 3-(2-amino-7,8-dihydropyrido[4,3-d]pyrimidin-6(5H)-yl)-1-(4-tert-butylphenyl)-4-methylpyridin-2(1H)-one]
